± gives the expanded uncertainty stated by the source.
Experiment: activity coefficient (dimensionless); of the first substance listed, at infinite dilution; xn = mol fraction of the nth substance listed
Conditions: Liquid, Chromatography, x1 = 0

Compound | activity coefficient (318.15 K) | activity coefficient (328.15 K) | activity coefficient (338.15 K) | activity coefficient (348.15 K) | activity coefficient (358.15 K) | activity coefficient (368.15 K)
CC(C)O [propan-2-ol] + CCCCCCn1cc[n+](C)c1.N#C[B-](C#N)(C#N)C#N | 1.2 ± 0.04 | 1.11 ± 0.03 | 1.03 ± 0.03 | 0.961 ± 0.026 | 0.902 ± 0.026 | 0.852 ± 0.027
C=CCCCCC [1-heptene] + CCCCCCn1cc[n+](C)c1.N#C[B-](C#N)(C#N)C#N | 8.39 ± 0.38 | 8.06 ± 0.37 | 7.79 ± 0.36 | 7.59 ± 0.35 | 7.37 ± 0.34 | 7.24 ± 0.33
C1CCOC1 [tetrahydrofuran] + CCCCCCn1cc[n+](C)c1.N#C[B-](C#N)(C#N)C#N | 0.453 ± 0.033 | 0.47 ± 0.033 | 0.485 ± 0.033 | 0.501 ± 0.032 | 0.513 ± 0.032 | 0.527 ± 0.032
CCCCCCC [heptane] + CCCCCCn1cc[n+](C)c1.N#C[B-](C#N)(C#N)C#N | 16.5 ± 0.8 | 15.4 ± 0.7 | 14.5 ± 0.7 | 13.7 ± 0.6 | 13 ± 0.6 | 12.4 ± 0.6
CC#N [acetonitrile] + CCCCCCn1cc[n+](C)c1.N#C[B-](C#N)(C#N)C#N | 0.387 ± 0.034 | 0.391 ± 0.034 | 0.394 ± 0.034 | 0.396 ± 0.034 | 0.398 ± 0.034 | 0.4 ± 0.034
C=CCCCCCC [oct-1-ene] + CCCCCCn1cc[n+](C)c1.N#C[B-](C#N)(C#N)C#N | 11.7 ± 0.5 | 11.1 ± 0.5 | 10.7 ± 0.5 | 10.3 ± 0.5 | 9.91 ± 0.46 | 9.64 ± 0.44
c1ccncc1 [pyridine] + CCCCCCn1cc[n+](C)c1.N#C[B-](C#N)(C#N)C#N | 0.38 ± 0.034 | 0.389 ± 0.034 | 0.4 ± 0.034 | 0.408 ± 0.034 | 0.418 ± 0.034 | 0.429 ± 0.034
CCC(C)O (centres undefined) [butan-2-ol] + CCCCCCn1cc[n+](C)c1.N#C[B-](C#N)(C#N)C#N | 1.27 ± 0.04 | 1.17 ± 0.04 | 1.1 ± 0.1 | 1.03 ± 0.03 | 0.977 ± 0.025 | 0.938 ± 0.026
C1CCCCCCC1 [cyclooctane] + CCCCCCn1cc[n+](C)c1.N#C[B-](C#N)(C#N)C#N | 9.94 ± 0.46 | 9.29 ± 0.43 | 8.75 ± 0.4 | 8.33 ± 0.38 | 7.9 ± 0.36 | 7.57 ± 0.35
CC(C)OC(C)C [diisopropyl ether] + CCCCCCn1cc[n+](C)c1.N#C[B-](C#N)(C#N)C#N | 3.68 ± 0.17 | 3.71 ± 0.17 | 3.75 ± 0.17 | 3.8 ± 0.17 | 3.82 ± 0.17 | 3.87 ± 0.18
CCCCCCCC [octane] + CCCCCCn1cc[n+](C)c1.N#C[B-](C#N)(C#N)C#N | 22.8 ± 1.1 | 21.1 ± 1 | 19.7 ± 0.9 | 18.6 ± 0.9 | 17.4 ± 0.8 | 16.6 ± 0.8
CCOC(C)(C)C [2-ethoxy-2-methylpropane] + CCCCCCn1cc[n+](C)c1.N#C[B-](C#N)(C#N)C#N | 3.51 ± 0.16 | 3.53 ± 0.16 | 3.53 ± 0.16 | 3.58 ± 0.16 | 3.61 ± 0.16 | 3.66 ± 0.17
CCO [ethanol] + CCCCCCn1cc[n+](C)c1.N#C[B-](C#N)(C#N)C#N | 1.05 ± 0.03 | 0.978 ± 0.025 | 0.912 ± 0.026 | 0.855 ± 0.027 | 0.807 ± 0.028 | 0.761 ± 0.029
C#CCCCCC [1-heptyne] + CCCCCCn1cc[n+](C)c1.N#C[B-](C#N)(C#N)C#N | 2.92 ± 0.13 | 2.93 ± 0.13 | 2.94 ± 0.13 | 2.98 ± 0.14 | 2.99 ± 0.14 | 3.02 ± 0.14

Reference: the NIST ThermoML archive (doi:10.1016/j.jct.2011.11.025)
